Reference: US4205163A, “Tylosin derivatives” (Sanraku-Ocean Co., Ltd., priority 1977, dated 1980)
Converted amounts (≈) assume the structure as drawn. Like-named read-outs stand apart in the source and are kept apart here.

Columns and labels:
[1] = tested on: Mycoplasma gallisepticum KP-13; experiment: antibacterial activity against Mycoplasma; format: cell-based; conditions: Mycoplasmoides gallisepticum, KP13
Description: (§1) Furthermore the new antibiotics according to the present invention also show antimicrobial activity on Mycoplasma. In particular, it is noteworthy that they have much higher antimicrobial activity than tylosin on Mycoplasma that is resistant to macrolide antibiotics. Tab.
(§2) **Medium (Eiken PPLO Medium)

in vivo = conditions: mouse, po, 100 mg/kg
Description: The new antibiotics according to the present invention were each orally administered to mice at a dose of 100 mg/kg. Each blood level was then measured and compared with those of tylosin and 3-acetyltylosin.

[2] = tested on: Streptococcus pyogenes MH-771; experiment: antimicrobial activity, broth dilution method; format: cell-based; conditions: Streptococcus pyogenes
How it was run: (§3)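 Broth dilution MICs were measured against pathogenic bacteria, including clinically isolated drug-resistant strains. Staphylococcus aureus MS-8710 is resistant to tylosin, penicillin, tetracycline, erythromycin and leucomycin, and Streptococcus pyogenes to tylosin, erythromycin, oleandomycin and leucomycin.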

[3] = tested on: Staphylococcus aureus MS-9931; experiment: antimicrobial activity, broth dilution method; format: cell-based
How it was run: as §3

[4] = tested on: Staphylococcus aureus MS-9937; experiment: antimicrobial activity, broth dilution method; format: cell-based
How it was run: as §3

[5] = toxicity in chickens, mixed with feed for a month; format: in vivo; conditions: mixed with feed at 0.3%
Description: 3-Acetyl-4"-D-(α-hydroxyphenylacetyl)tylosin, 4"-phenylthioacetyltylosin and 4"-benzenesulfonylacetyltylosin, selected as the representative compounds according to the present invention, were mixed with feed at a ratio of 0.3%, respectively and given to chickens for a month.

[6] = tested on: Mycoplasma gallisepticum A-72; experiment: antibacterial activity against Mycoplasma; format: cell-based; conditions: Mycoplasmoides gallisepticum, A72; strain A-72, macrolide resistant; Eiken PPLO Medium
Description: as §1
(§4) *Macrolide resistant strain
as §2

[7] = tested on: Mycoplasma gallisepticum E-11; experiment: antibacterial activity against Mycoplasma; format: cell-based; conditions: Mycoplasmoides gallisepticum, E11
Description: as §1, §4, §2

[8] = tested on: Mycoplasma gallisepticum E-5; experiment: antibacterial activity against Mycoplasma; format: cell-based; conditions: Mycoplasmoides gallisepticum, E5
Description: as §1, §4, §2

[9] = tested on: Staphylococcus aureus MS-8710; experiment: antimicrobial activity, broth dilution method; format: cell-based; conditions: Staphylococcus aureus
How it was run: as §3

[10] = tested on: Staphylococcus aureus FDA-209P; experiment: antimicrobial activity, broth dilution method; format: cell-based; conditions: Staphylococcus aureus, FDA209P, read-out: minimum inhibitory concentration (MIC)
How it was run: as §3

[11] = tested on: Staphylococcus aureus SMITH; experiment: antimicrobial activity, broth dilution method; format: cell-based; conditions: Staphylococcus aureus, read-out: minimum inhibitory concentration (MIC)
How it was run: as §3

[12] = tested on: Bacillus cereus ATCC 9634; experiment: antimicrobial activity, broth dilution method; format: cell-based; conditions: Bacillus cereus
How it was run: as §3

Sarcina lutea ATCC 9341 = experiment: antimicrobial activity, broth dilution method; format: cell-based; conditions: Micrococcus luteus, ATCC9341, Sarcina lutea ATCC 9341, read-out: minimum inhibitory concentration (MIC)
How it was run: as §3

[13] = strain KP-13, Eiken PPLO Medium, read-out: MIC
[14] = MH771, Streptococcus pyogenes MH-771, drug-resistant clinical isolate, read-out: minimum inhibitory concentration (MIC)
[15] = MS9931, Staphylococcus aureus MS-9931, drug-resistant clinical isolate, read-out: minimum inhibitory concentration (MIC)
[16] = MS9937, Staphylococcus aureus MS-9937, drug-resistant clinical isolate, read-out: minimum inhibitory concentration (MIC)
[17] = strain E-11, macrolide resistant, Eiken PPLO Medium, read-out: MIC
[18] = strain E-5, macrolide resistant, Eiken PPLO Medium, read-out: MIC
[19] = MS8710, Staphylococcus aureus MS-8710, drug-resistant clinical isolate, read-out: minimum inhibitory concentration (MIC)
[20] = Staphylococcus aureus FDA-209P, broth dilution
[21] = Staphylococcus aureus SMITH, broth dilution
[22] = ATCC9634, Bacillus cereus ATCC 9634, broth dilution, read-out: minimum inhibitory concentration (MIC)

SMILES	MIC [1, 13] [µg/mL]	MIC [2, 14] [µg/mL]	MIC [3, 15] [µg/mL]	MIC [4, 16] [µg/mL]	toxicity [5]	MIC [6] [µg/mL]	MIC [7, 17] [µg/mL]	MIC [8, 18] [µg/mL]	MIC [9, 19] [µg/mL]	MIC [10, 20] [µg/mL]	MIC [11, 21] [µg/mL]	MIC [12, 22] [µg/mL]	MIC (Sarcina lutea ATCC 9341) [µg/mL]	further results
CCC1OC(=O)CC(OC(C)=O)C(C)C(OC2OC(C)C(OC3CC(C)(O)C(OC(=O)C(O)c4ccccc4)C(C)O3)C(N(C)C)C2O)C(CC=O)CC(C)C(=O)C=CC(C)=CC1COC1OC(C)C(O)C(OC)C1OC [Compound 17, 3-acetyl-4"-D-(α-hydroxyphenylacetyl)tylosin]	0.157 (≈ 0.144 µM)	6.25 (≈ 5.72 µM)	12.5 (≈ 11.4 µM)	12.5 (≈ 11.4 µM)	No toxicity was observed	0.313 (≈ 0.287 µM)	0.625 (≈ 0.572 µM)	0.625 (≈ 0.572 µM)						concentration at 1 h (in vivo): 10000 ng/mL; concentration at 3 h (in vivo): 2000 ng/mL
CCC1OC(=O)CC(O)C(C)C(OC2OC(C)C(OC3CC(C)(O)C(OC(=O)CSc4ccccc4)C(C)O3)C(N(C)C)C2O)C(CC=O)CC(C)C(=O)C=CC(C)=CC1COC1OC(C)C(O)C(OC)C1OC (stereo not shown) [Compound 34, 4"-phenylthioacetyltylosin]	0.019 (≈ 0.0178 µM)	6.25 (≈ 5.86 µM)	12.5 (≈ 11.7 µM)	12.5 (≈ 11.7 µM)	No toxicity was observed	0.078 (≈ 0.0731 µM)	0.078 (≈ 0.0731 µM)	0.078 (≈ 0.0731 µM)	6.25 (≈ 5.86 µM)	0.39 (≈ 0.366 µM)	0.39 (≈ 0.366 µM)	0.39 (≈ 0.366 µM)	0.19 (≈ 0.178 µM)	
CCC1OC(=O)CC(O)C(C)C(OC2OC(C)C(OC3CC(C)(O)C(OC(=O)CS(=O)(=O)c4ccccc4)C(C)O3)C(N(C)C)C2O)C(CC=O)CC(C)C(=O)C=CC(C)=CC1COC1OC(C)C(O)C(OC)C1OC (stereo not shown) [Compound 43, 4"-benzenesulfonylacetyltylosin]	0.019 (≈ 0.0173 µM)	3.13 (≈ 2.85 µM)	6.25 (≈ 5.69 µM)	6.25 (≈ 5.69 µM)	No toxicity was observed	0.039 (≈ 0.0355 µM)	0.078 (≈ 0.071 µM)	0.078 (≈ 0.071 µM)	6.25 (≈ 5.69 µM)	0.78 (≈ 0.71 µM)	0.78 (≈ 0.71 µM)	0.78 (≈ 0.71 µM)	0.39 (≈ 0.355 µM)	
CC[C@H]1OC(=O)C[C@@H](O)[C@H](C)[C@@H](O[C@@H]2O[C@H](C)[C@@H](O[C@H]3C[C@@](C)(O)[C@@H](O)[C@H](C)O3)[C@H](N(C)C)[C@H]2O)[C@@H](CC=O)C[C@@H](C)C(=O)/C=C/C(C)=C/[C@@H]1CO[C@@H]1O[C@H](C)[C@@H](O)[C@@H](OC)[C@H]1OC [tylosin]						2.5 (≈ 2.73 µM)							0.19 (≈ 0.207 µM)	MIC [1]: 0.019 µg/mL (≈ 0.0207 µM); Cmax (in vivo): ≤ 1000 ng/mL; MIC ([9]; MS8710, read-out: minimum inhibitory concentration (MIC)): > 200 µg/mL; MIC [10]: 0.39 µg/mL (≈ 0.426 µM); MIC [11]: 0.39 µg/mL (≈ 0.426 µM); MIC ([2]; MH771, read-out: minimum inhibitory concentration (MIC)): > 200 µg/mL; MIC ([3]; Staphylococcus aureus, MS9931, read-out: minimum inhibitory concentration (MIC)): 200 µg/mL (≈ 218 µM); MIC ([4]; Staphylococcus aureus, MS9937, read-out: minimum inhibitory concentration (MIC)): 100 µg/mL (≈ 109 µM); MIC ([12]; ATCC9634, read-out: minimum inhibitory concentration (MIC)): 0.78 µg/mL (≈ 0.851 µM); MIC [7]: 2.5 µg/mL (≈ 2.73 µM); MIC [8]: 2.5 µg/mL (≈ 2.73 µM)
